Results: paper PMC3199286 (ACS chemical biology, 2011)

Key:
[1] = test system: PRMT1; conditions: ref [15]–[17]; cited from earlier work
[2] = target: T1, PRMT1 (Homo sapiens, UniProt Q99873); test: Active PRMT1 in MCF-7 nuclear extracts after estrogen stimulation; assay type: cell-based; conditions: 10 nM E2, 5 minute time point
[3] = target: T1, PRMT1; test: Active PRMT1 in MCF-7 cytoplasmic extracts after estrogen stimulation; assay type: cell-based

T1 sequence (Q99873 whole entry): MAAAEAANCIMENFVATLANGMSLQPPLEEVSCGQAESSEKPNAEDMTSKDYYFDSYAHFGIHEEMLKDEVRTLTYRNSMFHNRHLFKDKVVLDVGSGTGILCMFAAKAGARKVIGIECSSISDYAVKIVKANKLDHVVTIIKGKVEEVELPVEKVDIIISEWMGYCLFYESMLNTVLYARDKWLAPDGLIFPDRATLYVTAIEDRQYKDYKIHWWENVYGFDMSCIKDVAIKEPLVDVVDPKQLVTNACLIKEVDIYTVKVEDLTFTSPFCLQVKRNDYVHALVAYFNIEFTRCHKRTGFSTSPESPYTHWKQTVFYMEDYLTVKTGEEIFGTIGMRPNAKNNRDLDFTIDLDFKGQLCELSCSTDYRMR

Substance	PRMT1 substrate quality [1]	maximum reduction of active PRMT1 in nucleus [2]	increase of active PRMT1 in cytoplasm ([3]; 10 nM E2, 5 minutes after addition, MCF-7)	time of maximum active PRMT1 in cytoplasm ([3]; 10 nM E2, MCF-7)	time of return of active cytoplasmic PRMT1 to basal levels ([3]; 10 nM E2, MCF-7)	total PRMT1 levels in cytosolic and nuclear extracts (loading control) after estrogen ([3]; 10 nM E2, MCF-7, 10% loading control, Figure 6A lower panel)
AcH4-21: peptide which consists of the first 21 amino acids of histone H4, highly efficient PRMT1 substrate	highly efficient PRMT1 substrate					
estrogen		3 fold	2.5 fold	10 min	~ 15 minutes	remain constant
